Experiment [1] relates to α3β4, α3β2, α4β4 and α4β2 vertebrate nAChRs. As to conditions: read-out: IC50 of reversible channel block; cited from earlier work.
The target in experiment [2] is T1, Cel-EAT-2 and Cel-EAT-18c receptor (Cel-EAT-2 nAChR) (Caenorhabditis elegans, UniProt Q9U298).
T1 construct: homomeric EAT-2 co-expressed with Cel-EAT-18c in Xenopus laevis oocytes
Nature of the experiment: Two-electrode voltage-clamp of oocytes expressing Cel-EAT-2 with Cel-EAT-18c; agonist peak currents normalized to 100 uM ACh and fitted to the Hill equation. As to conditions: n = 6; read-out: pEC50 (mean±SEM) (converted). The experiment is classed as cell-based, Xenopus laevis oocytes.
Experimental: Oocyte injections and two-electrode electrophysiology recordings were performed as previously described [48].
GraphPad Prism 8.0 software (GraphPad Software Inc., USA) was used to analyze the data. […] We used One-way analysis of variance (ANOVA) and Extra sum of squares F-test to test statistical differences (statistically different if p<0.05). Tukeys’ multiple comparison was used as a post-hoc test.

Experiment [3] concerns the target T2, Cel-EAT-2 and Cel-EAT-18c nAChR (Caenorhabditis elegans, UniProt Q9U298).
T2 sequence (Q9U298 22-474): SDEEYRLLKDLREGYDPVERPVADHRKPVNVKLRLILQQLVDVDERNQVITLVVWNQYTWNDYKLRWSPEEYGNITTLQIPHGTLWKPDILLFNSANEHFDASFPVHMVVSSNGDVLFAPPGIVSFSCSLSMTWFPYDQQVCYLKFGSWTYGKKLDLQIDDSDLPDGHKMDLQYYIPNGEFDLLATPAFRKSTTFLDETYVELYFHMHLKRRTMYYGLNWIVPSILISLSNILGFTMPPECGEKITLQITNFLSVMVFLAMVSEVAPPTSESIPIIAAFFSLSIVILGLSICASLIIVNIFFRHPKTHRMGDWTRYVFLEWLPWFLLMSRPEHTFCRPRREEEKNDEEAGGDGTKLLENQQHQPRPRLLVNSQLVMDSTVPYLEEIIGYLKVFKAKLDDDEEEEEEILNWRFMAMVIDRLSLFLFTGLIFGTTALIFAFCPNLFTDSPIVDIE
Nature of the experiment: Two-electrode voltage-clamp of Cel-EAT-2 + Cel-EAT-18c nAChR expressed in Xenopus oocytes. It is filed as cell-based.

Another experiment addresses Asu-EAT-2 nAChR (Ascaris suum, UniProt F1L9Y6). The experiment in a line: cell-based. As to conditions: read-out: current response normalized to the control 100 μM ACh current. It is filed as cell-based, A. suum.
Experiment [4] has as its target T3, Cel-EAT-2 + Asu-EAT-18 + Asu-RIC-3 (Caenorhabditis elegans, UniProt Q9U298). Nature of the experiment: cell-based.
Experiment [5] concerns the target T3, Cel-EAT-2 + Asu-EAT-18 + Asu-RIC-3.
Experiment [6] concerns nAChRs expressed in the pharynx of A. suum. Nature of the experiment: tissue or blood. The experiment is classed as cell-based. On the procedure: A. suum pharyngeal dissections and electrophysiology recordings were adapted from Martin [49]. Briefly, pharynx was dissected out from the head region of the worm and mounted on Sylgard (Sigma-Aldrich Inc., USA)—lined in a double jacketed bath chamber maintained at 28°C. The muscle layer surrounding the anterior 3rd of the pharynx was preserved for anchoring. The intestine attached to the posterior end of the pharynx was used for stretching and pinning down. The preparation was continuously perfused with calcium-free Ascaris Perienteric Fluid-Ringer (calcium-free APF-Ringer) composition (mM): NaCl 23, Na-acetate 110, KCl 24, MgCl2 11, glucose 11, and HEPES 5; NaOH or acetic acid was added to adjust the pH to 7.6. […] The rate of localized perfusion was 3.5–4 ml min^−1 through a 20-gauge needle, which was placed directly above the recording region of the pharynx. […] We used 3 M potassium acetate in our micropipettes to get the final resistances of 4–7 MΩ for the voltage sensing and 0.5–1 MΩ for the current injecting electrode for current-clamp recordings. The current-injecting electrode injected hyperpolarizing step currents of −1000 nA for 500 ms at 0.3 Hz.
We constructed the sigmoidal concentration-response plots by fitting the data by nonlinear regression to determine the pEC50 and the maximal response (Rmax). Extra sum of squares F-test was used to test statistical differences between pEC50, slope, and maximal response. The significance levels were set to P<0.05.
In applications containing arecoline and pilocarpine, we used mecamylamine, a nAChR antagonist (30µM) to inhibit nAChRs and to allow only mAChR activation.

Where two headings read alike, the source gives them in different places.

T1 sequence (Q86DB4 entry or part of it, one chain of several): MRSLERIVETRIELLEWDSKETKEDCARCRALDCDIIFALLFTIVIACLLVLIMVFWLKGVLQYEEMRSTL
Asu-EAT-2 nAChR, sequence (F1L9Y6 entry or part of it): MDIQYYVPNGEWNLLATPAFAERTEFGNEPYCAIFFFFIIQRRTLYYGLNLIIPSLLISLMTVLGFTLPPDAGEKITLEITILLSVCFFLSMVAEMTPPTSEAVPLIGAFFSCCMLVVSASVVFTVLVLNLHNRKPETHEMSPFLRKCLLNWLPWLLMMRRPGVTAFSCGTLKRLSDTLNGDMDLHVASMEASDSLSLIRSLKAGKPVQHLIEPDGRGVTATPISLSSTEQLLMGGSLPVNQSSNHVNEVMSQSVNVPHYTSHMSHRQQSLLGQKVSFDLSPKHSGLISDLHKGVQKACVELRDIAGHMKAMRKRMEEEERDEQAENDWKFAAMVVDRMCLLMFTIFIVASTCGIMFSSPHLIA
Asu-EAT-2 nAChR, sequence (F1L1D9 entry or part of it, further chain): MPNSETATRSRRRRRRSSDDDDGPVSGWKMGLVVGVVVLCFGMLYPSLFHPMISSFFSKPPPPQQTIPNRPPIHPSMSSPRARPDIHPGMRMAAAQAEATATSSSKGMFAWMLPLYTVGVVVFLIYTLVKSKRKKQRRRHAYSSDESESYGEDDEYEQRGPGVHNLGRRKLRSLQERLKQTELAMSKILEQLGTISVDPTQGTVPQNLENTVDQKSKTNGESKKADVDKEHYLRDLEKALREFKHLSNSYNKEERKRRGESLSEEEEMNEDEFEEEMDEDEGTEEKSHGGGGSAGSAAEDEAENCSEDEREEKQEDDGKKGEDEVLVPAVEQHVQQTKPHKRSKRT

With `CN1[C@@H]2CC[C@H]1C[C@@H](OC(=O)C(CO)c1ccccc1)C2` (some centres unmarked) [atropine], the IC50 in experiment [1] is 4 to 10 µM.

As to `CCCC(=O)OCC[N+](C)(C)C` [butyrylcholine], the EC50 in experiment [2] was 126 µM. The “current response normalized to the control 100 μM ACh current (Imax)” value in experiment [3] (agonist 100 μM, mean±SEM, n≥6) was determined as 50.0±5.0%. Also, in experiment [3] (agonist concentration-response, 100 μM ACh as internal standard, mean±SEM), the pEC50 was 3.9±0.1. Also, the “Hill slope (nH)” value in experiment [3] (agonist concentration-response, mean±SEM) stood at 2.8±1.8.

As to `CN1CCC[C@H]1c1cccnc1` [nicotine], the Emax on Asu-EAT-2 nAChR is 105 ± 5.7%; in experiment [6] (Ascaris suum, read-out: % change in membrane conductance (δG) normalized to the ACh δG) it was 92 ± 6.2%. For the same compound, the EC50 in experiment [4] was 18.7 µM; in experiment [6] (Ascaris suum, read-out: pEC50 (converted)) it was 10 µM; in experiment [3], 63.1 µM. The Imax in experiment [5] was 96.5 ± 2.3%; in experiment [3], 54.6 ± 2.6%. For the same compound, the “Hill slope (nH)” value in experiment [6] stood at 1.7±0.6; in experiment [3], 2.4±0.4. The same compound had a maximal response in experiment [6] of 79.3 ± 4.3 μS. Besides, the “current response normalized to the control 100 μM ACh current (Imax)” value in experiment [3] worked out at 55 ± 8.0%. Further, in experiment [3] (read-out: current response normalized to the control 100 μM ACh current (Imax)), the Emax at 100 µM stood at 55 ± 8%.

The values are drawn from publication PMC7173930, “EAT-18 is an essential auxiliary protein interacting with the non-alpha nAChR subunit EAT-2 to form a functional receptor” (PLoS Pathogens, 2020).
